Reference: article PMC11012124, “Synthesis of Novel Triazine-Based Chalcones and 8,9-dihydro-7H-pyrimido[4,5-b][1,4]diazepines as Potential Leads in the Search of Anticancer, Antibacterial and Antifungal Agents” (International Journal of Molecular Sciences, 2024)
≈ marks a conversion by molar mass, not a printed value.

Experiments:
[1] = tested on: N. gonorrhoeae ATCC 49226; experiment: MIC on GC agar plates; format: cell-based, Neisseria gonorrhoeae; conditions: Neisseria gonorrhoeae, ATCC49226, read-out: MIC
Method: An initial screening for bacterial inhibition was performed by the agar diffusion method. […] DMSO and TSB were included as negative controls. Gentamicin and trimethoprim sulfamethoxazole were included as a positive control for growth inhibition. Derivatives showing growth inhibition were tested at least twice before being selected for the microdilution test. For N. gonorrhoeae, the agar diffusion method was also used for screening with some modifications. […] Penicillin and tetracycline were used as controls. […] Briefly, GC agar supplemented with 1% isovitalex was prepared with increasing concentrations of the new compounds and inoculated with 10 µL of a bacterial suspension (1 × 10^4 CFU). The lowest concentration of the compound that inhibited bacterial growth was determined as the MIC. Bacterial growth was examined and verified using the oxidase test. The experiments were performed in duplicate in at least two independent assays.

[2] = tested on: 60 cancer cell lines; experiment: NCI-60 one-dose screen (10 μM); format: cell-based; conditions: Homo sapiens; one dose of 10 μM, mean over 60 cancer cell lines; read-out: Mean Growth Percent (MGP)
From the text: Additionally, the mean of the growth percentages (MGP) of each compound against all the 60 cancer cell lines is also reported, which is used as one of the selection criteria to continue with tests at five concentration doses.

[3] = Hemolytic activity, spectrophotometric; format: cell-based, human; conditions: human, human red blood cells (huRBC), 5% hematocrit, 200 μg/mL, 37 °C
[4] = tested on: M. tuberculosis ATCC 27294; experiment: Antitubercular broth microdilution MIC; format: cell-based; conditions: Mycobacterium tuberculosis; M. tuberculosis ATCC 27294 (H37Rv); read-out: Minimum inhibitory concentration (MIC)

| SMILES | MIC [1] | activity at 10 µM [2] | hemolysis at 24 h, 200 µg/mL [3] | MIC [4] |
| --- | --- | --- | --- | --- |
| Nc1nc(N)c2c(n1)NC(c1ccccc1)CC(c1ccc(Nc3nc(NCCO)nc(N4CCOCC4)n3)cc1)=N2 (stereo not shown) [32a] | 8 µg/mL (≈ 14.1 µM) | 87.2% | 2% |  |
| COc1cc(C2CC(c3ccc(C)cc3)=Nc3c(N)nc(N)nc3N2)ccc1Oc1nc(Nc2ccc(F)cc2)nc(N(C)C)n1 (stereo not shown) [29b] | ≥ 500 µg/mL | 51.3% |  | 0.6 µg/mL (≈ 0.965 µM) |
| COc1ccc(C(=O)/C=C/c2ccc(Oc3nc(NCCO)nc(N4CCOCC4)n3)c(OC)c2)cc1 [20c] |  | 72% |  |  |
| COc1cc(C2CC(c3ccc(C)cc3)=Nc3c(N)nc(N)nc3N2)ccc1Oc1nc(NCCO)nc(N2CCOCC2)n1 (stereo not shown) [28b] | 4 µg/mL (≈ 6.52 µM) | 89.7% | 5% |  |
| COc1cc(C2CC(c3ccc(F)cc3)=Nc3c(N)nc(N)nc3N2)ccc1Oc1nc(NCCO)nc(N2CCOCC2)n1 (stereo not shown) [28f] | 8 µg/mL (≈ 13 µM) | 98.2% | 2% |  |
| Cc1ccc(/C=C/C(=O)c2ccc(S(=O)(=O)NCCNc3nc(N(C)C)nc(N4CCOCC4)n3)cc2)cc1 [23b] |  | 72.3% | 1.8% |  |
| COc1cc(/C=C/C(=O)c2ccc(C(F)(F)F)cc2)ccc1Oc1nc(Nc2ccc(F)cc2)nc(N(C)C)n1 [21g] |  | 73.2% |  |  |
| COc1cc(/C=C/C(=O)c2ccc(Cl)cc2)ccc1Oc1nc(Nc2ccc(F)cc2)nc(N(C)C)n1 [21e] |  | 73.1% |  |  |
| COc1cc(C2CC(c3ccc(Cl)cc3)=Nc3c(N)nc(N)nc3N2)ccc1Oc1nc(NCCO)nc(N2CCOCC2)n1 (stereo not shown) [28e] | 8 µg/mL (≈ 12.6 µM) | 70.2% | 5% |  |
| COc1ccc(C2CC(c3ccc(Nc4nc(NCCO)nc(Nc5ccc(Cl)cc5)n4)cc3)=Nc3c(N)nc(N)nc3N2)cc1 (stereo not shown) [33c] | 2 µg/mL (≈ 3.13 µM) | 63.3% | 5% |  |
| COc1cc(C2CC(c3ccc(Nc4nc(NCCO)nc(N5CCOCC5)n4)cc3)=Nc3c(N)nc(N)nc3N2)cc(OC)c1OC (stereo not shown) [32d] | 500 µg/mL (≈ 759 µM) | 99.5% |  |  |
| COc1cc(C=O)ccc1Oc1nc(NCCO)nc(N2CCOCC2)n1 [compound 14] |  | 102% |  |  |
| COc1cc(C2CC(c3ccc(S(=O)(=O)NCCNc4nc(Nc5ccc(F)cc5)nc(N(C)C)n4)cc3)=Nc3c(N)nc(N)nc3N2)cc(OC)c1OC (stereo not shown) [31d] | 500 µg/mL (≈ 646 µM) | 79.6% | 0.6% | 5 µg/mL (≈ 6.46 µM) |
| NNC(=O)c1ccncc1 [Isoniazid, reference compound] |  |  |  | 0.1 µg/mL (≈ 0.729 µM) |
| Nc1nc(N)c2c(n1)NC(c1ccc(Cl)cc1)CC(c1ccc(Nc3nc(NCCO)nc(N4CCOCC4)n3)cc1)=N2 (stereo not shown) [32e] | 1000 µg/mL (≈ 1660 µM) | 74% |  |  |
| COc1cc(/C=C/C(=O)c2ccc(Cl)cc2)ccc1Oc1nc(NCCO)nc(N2CCOCC2)n1 [20e] |  | 94.7% |  |  |
| CN(C)c1nc(NCCNS(=O)(=O)c2ccc(C3=Nc4c(N)nc(N)nc4NC(c4ccc(F)cc4)C3)cc2)nc(N2CCOCC2)n1 (stereo not shown) [30f] |  | 72.8% |  |  |
| COc1cc(C2CC(c3cc(OC)c(OC)c(OC)c3)=Nc3c(N)nc(N)nc3N2)ccc1Oc1nc(NCCO)nc(N2CCOCC2)n1 (stereo not shown) [28d] | 2 µg/mL (≈ 2.9 µM) | 98.9% | 1% |  |
| COc1ccc(C(=O)/C=C/c2ccc(Oc3nc(Nc4ccc(F)cc4)nc(N(C)C)n3)c(OC)c2)cc1 [21c] |  | 48.4% |  |  |
| Cc1ccc(C2CC(c3ccc(S(=O)(=O)NCCNc4nc(N(C)C)nc(N5CCOCC5)n4)cc3)=Nc3c(N)nc(N)nc3N2)cc1 (stereo not shown) [30b] |  | 49.9% | 0.2% |  |

| SMILES | MIC [1] | activity at 10 µM [2] | hemolysis at 24 h, 200 µg/mL [3] | MIC [4] |
| --- | --- | --- | --- | --- |
| COc1cc(/C=C/C(=O)c2ccccc2)ccc1Oc1nc(NCCO)nc(N2CCOCC2)n1 [20a] |  | 92.1% |  |  |
| COc1cc(/C=C/C(=O)c2ccc(F)cc2)ccc1Oc1nc(Nc2ccc(F)cc2)nc(N(C)C)n1 [21f] | 500 µg/mL (≈ 993 µM) | 56% | 0.8% |  |
| COc1cc(C2CC(c3ccccc3)=Nc3c(N)nc(N)nc3N2)ccc1Oc1nc(NCCO)nc(N2CCOCC2)n1 (stereo not shown) [28a] | 4 µg/mL (≈ 6.67 µM) | 98.8% | 3% |  |
| COc1cc(C=O)ccc1Oc1nc(Nc2ccc(F)cc2)nc(N(C)C)n1 [compound 15] | ≥ 500 µg/mL | 64.5% |  |  |
| CN(C)c1nc(NCCNS(=O)(=O)c2ccc(C3=Nc4c(N)nc(N)nc4NC(c4ccccc4)C3)cc2)nc(N2CCOCC2)n1 (stereo not shown) [30a] |  | 85.4% | 0.6% |  |
| CN(C)c1nc(NCCNS(=O)(=O)c2ccc(C3=Nc4c(N)nc(N)nc4NC(c4ccc(Cl)cc4)C3)cc2)nc(N2CCOCC2)n1 (stereo not shown) [30e] |  | 48.9% | 2.7% |  |
| COc1cc(C2CC(c3ccccc3)=Nc3c(N)nc(N)nc3N2)ccc1Oc1nc(Nc2ccc(F)cc2)nc(N(C)C)n1 (stereo not shown) [29a] | 2 µg/mL (≈ 3.29 µM) | 40.2% | 3% | 5 µg/mL (≈ 8.23 µM) |
| COc1cc(/C=C/C(=O)c2ccc(F)cc2)ccc1Oc1nc(NCCO)nc(N2CCOCC2)n1 [20f] |  | 72.4% |  |  |
| COc1ccc(C2=Nc3c(N)nc(N)nc3NC(c3ccc(Oc4nc(NCCO)nc(N5CCOCC5)n4)c(OC)c3)C2)cc1 (stereo not shown) [28c] | 0.5 µg/mL (≈ 0.794 µM) | 102% | 7% |  |
| Nc1nc(N)c2c(n1)NC(c1ccc(F)cc1)CC(c1ccc(Nc3nc(NCCO)nc(N4CCOCC4)n3)cc1)=N2 (stereo not shown) [32f] | 2 µg/mL (≈ 3.41 µM) | 89.1% | 5% |  |
| Nc1nc(N)c2c(n1)NC(c1ccc(C(F)(F)F)cc1)CC(c1ccc(Nc3nc(NCCO)nc(N4CCOCC4)n3)cc1)=N2 (stereo not shown) [32g] | 4 µg/mL (≈ 6.28 µM) | 64.8% | 2% |  |
| Cc1ccc(C2CC(c3ccc(Nc4nc(NCCO)nc(N5CCOCC5)n4)cc3)=Nc3c(N)nc(N)nc3N2)cc1 (stereo not shown) [32b] | 4 µg/mL (≈ 6.86 µM) | 84.5% | 1% |  |
| COc1ccc(C2CC(c3ccc(S(=O)(=O)NCCNc4nc(N(C)C)nc(N5CCOCC5)n4)cc3)=Nc3c(N)nc(N)nc3N2)cc1 (stereo not shown) [30c] |  | 84.3% |  |  |
| COc1cc(C2CC(c3ccc(Nc4nc(NCCO)nc(Nc5ccc(Cl)cc5)n4)cc3)=Nc3c(N)nc(N)nc3N2)cc(OC)c1OC (stereo not shown) [33d] |  | 65.3% |  |  |
| COc1cc(/C=C/C(=O)c2ccc(C(F)(F)F)cc2)ccc1Oc1nc(NCCO)nc(N2CCOCC2)n1 [20g] |  | 77.7% |  |  |
| COc1ccc(C2CC(c3ccc(Nc4nc(NCCO)nc(N5CCOCC5)n4)cc3)=Nc3c(N)nc(N)nc3N2)cc1 (stereo not shown) [32c] |  | 101% |  |  |
| CC(=O)c1ccc(S(=O)(=O)NCCNc2nc(Nc3ccc(F)cc3)nc(N(C)C)n2)cc1 [compound 18] |  | 104% |  |  |
| COc1ccc(/C=C/C(=O)c2ccc(S(=O)(=O)NCCNc3nc(N(C)C)nc(N4CCOCC4)n3)cc2)cc1 [23c] |  | 81.5% | 0% |  |
| COc1ccc(C2CC(c3ccc(S(=O)(=O)NCCNc4nc(Nc5ccc(F)cc5)nc(N(C)C)n4)cc3)=Nc3c(N)nc(N)nc3N2)cc1 (stereo not shown) [31c] | 8 µg/mL (≈ 11.2 µM) | 75.8% | 1.2% | 1.2 µg/mL (≈ 1.68 µM) |
